The values below come from PMC9822133, “Design, Synthesis and Antiproliferative Evaluation of Bis-Indole Derivatives with a Phenyl Linker: Focus on Autophagy” (Molecules, 2022).

The test system of one data set is Caco-2. In words: MTT screening assay, Caco-2. The class given is cell-based. Particulars: Homo sapiens, 72 h incubation. The source says: (§1) The ability of newly synthesized indole phytoalexins to suppress cell proliferation was screened in vitro on eight cancer cell lines including human colorectal carcinoma (Caco-2 and HCT116), human cervical cancer (HeLa), human breast adenocarcinoma (MCF-7, MDA-MB-231), human alveolar adenocarcinoma (A549) and human leukemic T cell lymphoma (Jurkat), and two non-cancer cell lines (MCF-10A, Cos-7).
(§2) The cell lines used for this study were Caco-2 (human colorectal adenocarcinoma cell line, American Type Culture Collection, Manassas, VA, USA (ATCC)), HCT116 (human colorectal carcinoma cells European Collection of Authenticated Cell Cultures, Salisbury, UK (ECACC)), HeLa (human cervical tumor cells, ECACC), MCF-7 (human breast tumor cells, ECACC), MDA-MB-231 (human breast tumor cells, ATCC), A549 (human lung carcinoma cells, ATCC), BLM (human melanoma lung metastases, a gift from prof. K. Smetana, Institute of Anatomy, Charles University in Prague), Jurkat (human leukemia cell line, ECACC), Cos-7 (immortalized monkey kidney fibroblasts, ATCC) and MCF-10A (human mammary epithelial cells, ATCC). Caco-2, MCF-7, BLM, Cos-7 and A549 cells were cultured in Dulbecco’s Modified Eagle’s Medium (DMEM) with high glucose and sodium pyruvate (GE Healthcare, Piscataway, NJ, USA); HCT116 lines, HeLa, MDA-MB-231 and Jurkat were cultured in RPMI-1640 medium; and MCF10A cells were cultured in high glucose DMEM/F12 (Dulbecco’s Modified Eagle’s Medium F12). The media were enriched with 10% fetal bovine serum (FBS) and a 1% solution of a mixture of antibiotics and antimycotics 1× HyClone™ (GE Healthcare, Chicago, IL, USA). DMEM/F12 medium was supplemented with epidermal growth factor (EGF) (20 ng/mL final), hydrocortisone (0.5 μg/mL final) and insulin (10 μg/mL final) (Sigma-Aldrich Chemie, Steinheim, Germany). The cells were placed in an incubator at 37 °C with humidified air containing 5% CO2.
(§3) The MTT assay is a colorimetric method used to quantify the metabolic activity of cells. MTT (3-(4,5-di-methylthiazol-2-yl)2,5-diphenyltetrazolium bromide) (Sigma-Aldrich Chemie, Steinheim, Germany) is reduced by oxidoreductases in the cytosol of cells to light-absorbing formazan, the presence of which can be measured spectrophotometrically and determines the half-maximal inhibitory concentration (IC50). A549 cells were seeded in […] culture plates at a density of 5 × 10^3 per well. […]
(§4) We also incubated the cells with chloroquine at concentrations of 5–20 µM, which was added 1 h before the addition of the test substance, and cisplatin at concentrations of 3–10 µM. […] After 24 h, the absorbance was measured at a wavelength of 540 nm using an automated Cytation™ 3 Cell Imaging Multi-Mode Reader (Biotek, Winooski, VT, USA). […]
(In general: Tetrazolium dyes change colour on reduction, which living cells bring about.)

In a further data set the test system is HCT116. In words: MTT screening assay, HCT116. Type of data set: cell-based. As to conditions: Homo sapiens, HCT-116, 72 h incubation.
Excerpt: as §1, §2, §3, §4

A further data set relates to HeLa. In words: MTT screening assay, HeLa. The class given is cell-based. As to conditions: Homo sapiens, 72 h incubation.
Excerpt: as §1, §2, §3, §4

The next data set deals with MCF-7. In words: MTT screening assay, MCF-7. Type of data set: cell-based. As to conditions: Homo sapiens, MCF7, 72 h incubation.
Excerpt: as §1, §2, §3, §4

Another data set relates to A549. In words: MTT screening assay, A549. Type of data set: cell-based. As to conditions: Homo sapiens, 72 h incubation.
Excerpt: as §1, §2, §3, §4

For another data set, the system named is Jurkat. In words: MTT screening assay, Jurkat. The class given is cell-based. Particulars: Homo sapiens, 72 h incubation.
Excerpt: as §1, §2, §3, §4

For the next data set, the system named is BLM. In words: MTT screening assay, BLM. Type of data set: cell-based. Particulars: Homo sapiens, 72 h incubation.
The subject of a further data set is MDA-MB-231. In words: MTT screening assay, MDA-MB-231. Type of data set: cell-based. Particulars: Homo sapiens, 72 h incubation.
Excerpt: as §1, §2, §3, §4

A further data set deals with MCF10A. Nature of the data set: MTT screening assay, MCF10A non-cancer cells. As to conditions: Homo sapiens, MCF-10A; 72 h incubation, MTT, non-cancer cells. The class given is cell-based, human.
Excerpt: as §1, §2
The MTT assay is a colorimetric method used to quantify the metabolic activity of cells. MTT (3-(4,5-di-methylthiazol-2-yl)2,5-diphenyltetrazolium bromide) (Sigma-Aldrich Chemie, Steinheim, Germany) is reduced by oxidoreductases in the cytosol of cells to light-absorbing formazan, the presence of which can be measured spectrophotometrically and determines the half-maximal inhibitory concentration (IC50). A549 cells were seeded in […] culture plates at a density of 5 × 10^3 per well. After 24 h of cultivation, the tested substance 49 was added in concentrations of 10, 50 and 100 µM.
We also incubated the cells with chloroquine at concentrations of 5–20 µM, which was added 1 h before the addition of the test substance, and cisplatin at concentrations of 3–10 µM. Cisplatin was added 24 h after the addition of 49. After 72 h of incubation, 10 µL of MTT (5 mg/mL) was added to each well. After 4 h, formazan crystals formed in the wells, which were dissolved in 100 uL of 10% SDS (sodium dodecyl sulfate). After 24 h, the absorbance was measured at a wavelength of 540 nm using an automated Cytation™ 3 Cell Imaging Multi-Mode Reader (Biotek, Winooski, VT, USA). These experiments were performed in three independent replicates.

A further data set deals with Cos-7. In words: MTT screening assay, Cos-7 non-cancer cells. Type of data set: cell-based, monkey. As to conditions: Primates, 72 h incubation.
Excerpt: as §1, §2, §3, §4

In data set [1] the test system is A549 human lung cancer cells. In words: MTT assay with cis-platin alone or combined with compound 49. Type of data set: cell-based. As to conditions: A549, CisPt alone 10.0 μM, 72 h.
Excerpt: Furthermore, the depletion of GSH has been documented to potentiate the effect of anticancer drugs. Glutathione plays an important role in cisPt detoxification, so depletion of GSH is believed to potentiate the cisPt-induced DNA damage and increase the chemosensitivity of cancer cells to this anticancer drug. Due to the GSH-depleting effect of compound 49, we performed a set of experiments with cis-platin (CisPt) alone or in combination with compound 49 (Figure 9). […] Simultaneous treatments with CisPt (10 μM) and 20 μM of compound 49 caused a 59% reduction in cell growth.
The MTT assay is a colorimetric method used to quantify the metabolic activity of cells. MTT (3-(4,5-di-methylthiazol-2-yl)2,5-diphenyltetrazolium bromide) (Sigma-Aldrich Chemie, Steinheim, Germany) is reduced by oxidoreductases in the cytosol of cells to light-absorbing formazan, the presence of which can be measured spectrophotometrically and determines the half-maximal inhibitory concentration (IC50). […]
as §4

For `CC(C)(C)OC(=O)n1cc(CN2C(=O)CSC2=Nc2ccc(N=C3SCC(=O)N3Cc3cn(C(=O)OC(C)(C)C)c4ccccc34)cc2)c2ccccc21` [Compound 51a, 2,2′-[1,4-phenylenebis(azanylylidene)]bis{3-[(1-(tert-butoxycarbonyl)-indol-3-yl)methyl]-1,3-thiazolidin-4-one}], the melting point – broadly, the temperature, or range, at which the solid turns liquid – was in the range of 196 to 198 °C. In addition, the IC50 (commonly the midpoint of a concentration-inhibition curve) in the data set with Caco-2 is more than 100 µM. The molecule also came in with a half-maximal inhibitory concentration (IC50) with HCT116 of 97.7 ± 3.2 µM. Besides, the IC50 in the data set on HeLa is more than 100 µM. Further, in the data set on MCF-7, the IC50 is more than 100 µM. For the same molecule, inhibition in the data set with A549 was half-maximal at 93.8 ± 1 µM (IC50). The IC50 in the data set with Jurkat is more than 100 µM. In the data set with BLM, this molecule registered a half-inhibitory concentration (IC50) of more than 100 µM. Further, the half-maximal inhibitory concentration (IC50) in the data set on MDA-MB-231 was more than 100 µM. Also, the IC50 in the data set with MCF10A was more than 100 µM. In addition, the IC50 in the data set on Cos-7 was more than 100 µM.
As for `N.N.[Cl][Pt][Cl]` [CisPt, cis-platin, reference compound], in data set [1], the “reduction of cell growth” value was found to be 39%.
The molecule `CC(C)(C)OC(=O)n1cc(CNC(=S)Nc2ccc(NC(=S)NCc3cn(C(=O)OC(C)(C)C)c4ccccc34)cc2)c2ccccc21` [Compound 48, N,N′-(1,4-phenylene)bis{N′-[1-(tert-butoxycarbonyl)indol-3-yl]methyl (thiourea)}] returned a melting point of 204 to 206 °C. It took 51.7 ± 4.1 µM to reach half-maximal inhibition in the data set on Caco-2 (IC50). Moreover, the 50% inhibitory concentration (IC50) with HCT116 was 51.9 ± 4.7 µM. In the data set with HeLa, this molecule registered an IC50 of 65.3 ± 5.3 µM. Moreover, the IC50 in the data set with MCF-7 is 77 ± 2.1 µM. Besides, in the data set on A549, the 50% inhibitory concentration (IC50) stood at 73.1 ± 7.3 µM. For the same molecule, it took 38.8 ± 2.9 µM to reach half-maximal inhibition in the data set on Jurkat (IC50). Further, the IC50 in the data set on BLM worked out at 77.1 ± 4.3 µM. For the same molecule, half-maximal inhibition in the data set with MDA-MB-231 (IC50) was put at 46 ± 2.5 µM. The IC50 in the data set on MCF10A came out at 67.3 ± 1.9 µM. The molecule further came in with an IC50 in the data set with Cos-7 of 78.3 ± 2.6 µM.
As to `CO[C@@H]1N(C(=O)OC(C)(C)C)c2ccccc2[C@]12CN=C(Nc1ccc(NC3=NC[C@]4(S3)c3ccccc3N(C(=O)OC(C)(C)C)[C@@H]4OC)cc1)S2` [Compound 52a, N,N′-bis[1-(tert-Butoxycarbonyl)-2-methoxy-spiro{indoline-3,5′-[4′,5′]dihydrothiazol-2′-yl}]benzene-1,4-diamine], the IC50 in the data set on Caco-2 was found to be 6.1 ± 2.1 µM; with HCT116, 5.8 ± 0.3 µM; with HeLa, 6.4 ± 0.7 µM; with MCF-7, 62.9 ± 3.9 µM; in the data set on A549, 5.95 ± 0.2 µM; in the data set with Jurkat, 6.1 ± 0.7 µM. For the same molecule, the IC50 was 7.4 ± 2.5 µM in the data set with BLM, 8.3 ± 3.2 µM with MDA-MB-231, 10.1 ± 6.2 µM in the data set with MCF10A and 7.15 ± 0.3 µM in the data set on Cos-7.
